Assay results reported in patent publication US7557137B2, “Gamma-lactams as beta-secretase inhibitors” (Bristol-Myers Squibb Company, priority 2002, dated 2009).

molecular target: T1, BACE enzyme (Homo sapiens, UniProt P56817); test: BACE enzyme inhibition, fluorescence-quenched peptide substrate MCA-EVNLDAEFK(DNP); assay type: biochemical; conditions: 50 mM acetate, pH 4.5, 0.25 mg/ml bovine serum albumin, 2.5% DMSO; read-out: Activity Rating (based on IC50 values)
T1 construct: the catalytic domain, appended by a C-terminal poly-histidine tag, is secreted out into the cellular medium; made in house; host or cells: Drosophila melanogaster S2 cells
T1 sequence (P56817 75-416 limits assumed): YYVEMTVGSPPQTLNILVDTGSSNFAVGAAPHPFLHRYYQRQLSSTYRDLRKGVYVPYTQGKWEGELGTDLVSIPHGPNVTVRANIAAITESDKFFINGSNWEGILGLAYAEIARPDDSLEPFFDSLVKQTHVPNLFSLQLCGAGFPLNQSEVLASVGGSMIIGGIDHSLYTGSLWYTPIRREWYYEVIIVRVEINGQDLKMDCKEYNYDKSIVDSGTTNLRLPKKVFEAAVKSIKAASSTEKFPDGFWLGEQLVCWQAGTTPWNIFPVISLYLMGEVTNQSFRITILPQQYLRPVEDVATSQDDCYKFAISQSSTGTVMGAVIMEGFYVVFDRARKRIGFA
Description: There are a number of methods by which inhibitors of the BACE enzyme can be identified experimentally. The enzyme can be obtained from membrane samples from natural tissues or cultured cells or can be expressed recombinantly in a host cell by well known methods of molecular biology. […] The enzymatic activity and/or ligand binding capability of the enzyme can be assessed within these membrane samples, or the enzyme can be purified to varying extents. As an illustrative example, the nucleic acid sequence encoding the pro and catalytic domains of human BACE can be appended on the 5′ end with an untranslated and signal sequence from the gene for acetylcholinesterase, and on the 3′ end with a sequence encoding a poly-histidine tag. This cDNA can then be expressed in Drosophila melanogaster S2 cells in which the signal and pro sequences of the transcribed/translated protein are removed by cellular proteases and the catalytic domain, appended by a C-terminal poly-histidine tag, is secreted out into the cellular medium. The enzyme can then be purified from the culture medium by nickel affinity chromatography by methods well known to those trained in the art [Mallender, W. et al., (2001) “Characterization of recombinant, soluble beta-secretase from an insect cell expression system.” Mol. Pharmacol. 59: 619-626]. Similar strategies for expressing and purifying various forms of BACE in bacterial, mammalian and other cell types would be known to one skilled in the art.
The enzyme thus obtained can be put in contact with a test compound and with an appropriate substrate on which enzyme-mediated peptide bond hydrolysis is known to occur. The ability of the test compound to diminish the rate of substrate hydrolysis can then be quantified as a measure of inhibition potency. Appropriate substrates can be prepared as peptides, proteins, or chemically modified versions of peptides or proteins, that contain an amino acid sequence that is recognized as a substrate by the enzyme. For example, the amino acid sequence immediately proximal to the beta-cleavage site within Swedish mutant APP is known to be recognized as a substrate for BACE. […] Longer peptide and protein substrates can also be designed by extending the amino acid composition on the N-terminal, the C-terminal, or both ends.
In one known application of (SEQ. ID. NO.:1), X is a 7-methoxycoumarin-4-acetyl (MCA) group and Y is a dinitrophenyl (DNP) group [Marcinkeviciene, J. et al., (2001) “Mechanism of inhibition of beta-site amyloid precursor protein-cleaving enzyme (BACE) by a statine-based peptide.” J. Biol. Chem. 276: 23790-23794]. When this peptide is intact, the natural fluorescence of the MCA group is quenched by its proximity to the DNP group. […] The increase in fluorescence intensity that accompanies enzyme-mediated peptide hydrolysis can be measured as a function of time to quantify the velocity of enzyme catalysis. In a typical assay system the BACE enzyme is diluted into a buffer system composed of 50 mM acetate, pH 4.5 containing 0.25 mg/ml bovine serum albumin. To this is added neat dimethyl sulfoxide (DMSO) or a stock solution of test compound dissolved in DMSO so that the final amount of DMSO in all assays is held constant at 2.5% (v:v). The enzymatic reaction is then initiated by addition of a stock solution of the substrate peptide to a known concentration. The fluorescence increase with time after substrate addition is monitored with an appropriate fluorescence detection instrument, such as a microplate reader or spectrofluorometer. The slope of the signal vs. time plot (progress curve) for samples to which only DMSO was added is taken as a measure of the uninhibited velocity and represents 100% enzymatic activity.

Row | SMILES | IC50
1 | CC(=O)N[C@]1(CC(C)C)CCN([C@@H](CCc2ccccc2)C(=O)N[C@@H](Cc2ccccc2)[C@H](O)CNCc2ccccc2)C1=O [Example 35, 2-(3(S)-Acetylamino-3(S)-isobutyl-2-oxo-pyrrolidin-1-yl)-N-[(1S,2R)-1-benzyl-2-hydroxy-3-benzylamino-propyl]-4-phenyl-butyramide] | < 0.1 µM
2 | COc1cccc(CNC[C@@H](O)[C@H](Cc2cc(F)cc(F)c2)NC(=O)[C@H](CCc2ccc3c(c2)OCO3)N2CC[C@@](CC3CC3)(NC(C)=O)C2=O)c1 [Example 39] | < 0.1 µM
3 | CC[C@H](C)[C@@]1(NC(C)=O)CCN([C@@H](CCc2ccccc2)C(=O)N[C@@H](Cc2ccccc2)[C@H](O)CNCc2cccc(OC)c2)C1=O [Example 3, (2S)-2-(3(S)-Acetylamino-3-((S)-sec-butyl)-2-oxo-pyrrolidin-1-yl)-N-[(1S,2R)-1-benzyl-2-hydroxy-3-(3-methoxy-benzylamino)-propyl]-4-phenyl-butyramide] | < 0.1 µM
4 | CCNC(=O)N[C@]1([C@@H](C)CC)CCN([C@@H](CCc2ccccc2)C(=O)N[C@@H](Cc2ccccc2)[C@H](O)CNCc2cccc(OC)c2)C1=O [Example 18, (2S)-2-(3(S)-ethylureido-3-((S)-sec-butyl)-2-oxo-pyrrolidin-1-yl)-N-[(1S,2R)-1-benzyl-2-hydroxy-3-(3-methoxy-benzylamino)-propyl]-4-phenyl-butyramide] | < 0.1 µM
5 | COc1cccc(CNC[C@@H](O)[C@H](Cc2cc(F)cc(F)c2)NC(=O)[C@H](CCc2ccccc2OC)N2CCC(CC3CC3)(NC(C)=O)C2=O)c1 (stereo in doubt) [Example 38, (2S)-2-(3(S)-acetylamino-3-(cyclopropylmethyl)-2-oxo-pyrrolidin-1-yl)-N-[(1S,2R)-1-(3,5-difluorobenzyl)-2-hydroxy-3-(3-methoxybenzylamino)-propyl]-4-(2-methoxyphenyl)-butyramide] | < 0.1 µM
6 | CC[C@H](C)[C@@]1(NC(=O)C(F)(F)F)CCN([C@@H](CCc2ccccc2)C(=O)N[C@@H](Cc2ccccc2)[C@H](O)CNCc2cccc(OC)c2)C1=O [Example 19, (2S)-2-(3(S)-(trifluoroacetyl)amino-3-((S)-sec-butyl)-2-oxo-pyrrolidin-1-yl)-N-[(1S,2R)-1-benzyl-2-hydroxy-3-(3-methoxy-benzylamino)-propyl]-4-phenyl-butyramide] | 0.1 to 1 µM
7 | CC(=O)NC1(CC(C)C)CCN([C@@H](CCc2ccccc2)C(=O)N[C@@H](Cc2ccccc2)[C@H](O)CNCC2CC2)C1=O (stereo in doubt) [Example 32, (2S)-2-(3(S)-acetylamino-3-(isobutyl)-2-oxo-pyrrolidin-1-yl)-N-[(1S,2R)-1-benzyl-2-hydroxy-3-(cyclopropylmethyl)amino-propyl]-4-phenyl-butyramide] | 0.1 to 1 µM
8 | CCC(=O)N[C@]1([C@@H](C)CC)CCN([C@@H](CCc2ccccc2)C(=O)N[C@@H](CC(C)C)[C@H](O)CNCc2cccc(OC)c2)C1=O [Example 4, 2(S)-(3(S)-((S)-sec-butyl)-2-oxo-3-propionylamino-pyrrolidin-1-yl)-N—(S)-{1(R)-[1-hydroxy-2-(3-methoxy-benzylamino)-ethyl]-3-methyl-butyl}-4-phenyl-butyramide] | 0.1 to 1 µM
9 | CC[C@H](C)[C@@]1(NC(=O)CCO)CCN([C@@H](CCc2ccccc2)C(=O)N[C@@H](Cc2ccccc2)[C@H](O)CNCc2cccc(OC)c2)C1=O [Example 24, (2S)-2-(3(S)-(3-hydroxypropionylamino)-3-((S)-sec-butyl)-2-oxo-pyrrolidin-1-yl)-N-[(1S,2R)-1-benzyl-2-hydroxy-3-(3-methoxy-benzylamino)-propyl]-4-phenyl-butyramide] | < 0.1 µM
10 | CC[C@H](C)[C@@]1(NC(=O)CCCO)CCN([C@@H](CCc2ccccc2)C(=O)N[C@@H](Cc2ccccc2)[C@H](O)CNCc2cccc(OC)c2)C1=O [Example 25, (2S)-2-(3(S)-(4-hydroxybutyrylamino)-3-((S)-sec-butyl)-2-oxo-pyrrolidin-1-yl)-N-[(1S,2R)-1-benzyl-2-hydroxy-3-(3-methoxy-benzylamino)-propyl]-4-phenyl-butyramide] | < 0.1 µM
11 | CCOC(=O)N[C@]1([C@@H](C)CC)CCN([C@@H](CCc2ccccc2)C(=O)N[C@@H](Cc2ccccc2)[C@@H](O)CNCc2cccc(OC)c2)C1=O [Example 13, (2S)-2-(3(S)-ethoxycarbonylamino-3-((S)-sec-butyl)-2-oxo-pyrrolidin-1-yl)-N-[(1S,2S)-1-benzyl-2-hydroxy-3-(3-methoxy-benzylamino)-propyl]-4-phenyl-butyramide] | 1 to 50 µM
12 | CCC(C)[C@@]1(NC(=O)CN)CCN([C@@H](CCc2ccccc2)C(=O)N[C@@H](Cc2ccccc2)[C@H](O)CNCc2cccc(OC)c2)C1=O (single isomer, unassigned) [Example 22] | 0.1 to 1 µM
13 | CC[C@H](C)[C@@]1(NC(=O)[C@@H](N)CCC(=O)O)CCN([C@@H](CCc2ccccc2)C(=O)N[C@@H](Cc2ccccc2)[C@H](O)CNCc2cccc(OC)c2)C1=O [Example 8] | < 0.1 µM
14 | CCC(C)[C@@]1(NC(=O)OC)CCN([C@@H](CCc2ccccc2)C(=O)N[C@@H](Cc2ccccc2)[C@H](O)CNCc2cccc(OC)c2)C1=O (single isomer, unassigned) [Example 16] | < 0.1 µM
15 | COc1cccc(CNC[C@@H](O)[C@H](Cc2ccccc2)NC(=O)[C@H](CCc2ccccc2)N2CC[C@@](CC3CC3)(NC(C)=O)C2=O)c1 [Example 6, (2S)-2-(3(R)-Acetylamino-3(-cyclopropylmethyl)-2-oxo-pyrrolidin-1-yl)-N-[(1S,2R)-1-benzyl-2-hydroxy-3-(3-methoxy-benzylamino)-propyl]-4-phenyl-butyramide] | 1 to 50 µM
16 | CC[C@H](C)[C@@]1(NC(C)=O)CCN([C@@H](CCc2ccccc2)C(=O)N[C@@H](Cc2ccccc2)[C@H](O)CNCc2cccc(Cl)c2)C1=O [Example 29, (2S)-2-(3(S)-acetylamino-3-((S)-sec-butyl)-2-oxo-pyrrolidin-1-yl)-N-[(1S,2R)-1-benzyl-2-hydroxy-3-(3-chloro-benzylamino)-propyl]-4-phenyl-butyramide] | < 0.1 µM
17 | COc1cccc(CC[C@@H](C(=O)N[C@@H](Cc2cc(F)cc(F)c2)[C@H](O)CNCc2cccc(OC)c2)N2CCC(CC3CC3)(NC(C)=O)C2=O)c1 (stereo in doubt) [Example 42, (2S)-2-(3(S)-acetylamino-3-(cyclopropylmethyl)-2-oxo-pyrrolidin-1-yl)-N-[(1S,2R)-1-(3,5-difluorobenzyl)-2-hydroxy-3-(3-methoxybenzylamino)-propyl]-4-(3-methoxyphenyl)-butyramide] | < 0.1 µM
18 | CC[C@H](C)[C@@]1(NC(C)=O)CCN([C@@H](CCc2ccccc2)C(=O)N[C@@H](Cc2ccccc2F)[C@H](O)CNCc2cccc(OC)c2)C1=O [Example 11, (2S)-2-(3(S)-acetylamino-3-((S)-sec-butyl)-2-oxo-pyrrolidin-1-yl)-N-[(1S,2R)-1-(2-fluorobenzyl)-2-hydroxy-3-(3-methoxy-benzylamino)-propyl]-4-phenyl-butyramide] | 0.1 to 1 µM
19 | COc1cccc(CNC[C@@H](O)[C@H](Cc2cc(F)cc(F)c2)NC(=O)[C@H](CCc2ccc(F)cc2)N2CCC(CC3CC3)(NC(C)=O)C2=O)c1 (stereo in doubt) [Example 41, (2S)-2-(3(S)-acetylamino-3-(cyclopropylmethyl)-2-oxo-pyrrolidin-1-yl)-N-[(1S,2R)-1-(3,5-difluorobenzyl)-2-hydroxy-3-(3-methoxybenzylamino)-propyl]-4-(4-fluorophenyl)-butyramide] | < 0.1 µM
